Literature values as cited in patent US10149481B2, “Arthropod control compositions and methods” (Tyratech, Inc., priority 2012, dated 2018).

Legend:
[1] = tested on: D. variabilis; conditions: 2 h after application, unformulated (Kimps et al. 2011)
[2] = for mammalian toxicity: Nentwig 2003, Frances 2007b, Moore and Debboun 2007

CCCCCCCCCC(C)=O [2-undecanone]
repellency [1]: 74%

CCCCN(CCC(=O)OCC)C(C)=O [IR3535, 3-(N-Butyl-N-acetyl)-amino propionic acid ethyl ester]
mammalian toxicity [2]: low mammalian toxicity

CC1CCC(C(C)(C)O)C(O)C1 (centres unmarked) [PMD, p-menthane-3,8-diol]
eye irritation ([2]; Strickman 2007): exceptionally irritating to the eyes
rat oral and rabbit dermal toxicity ([2]; Strickman 2007): low

Picaridin
mammalian toxicity [2]: low mammalian toxicity
